Measured values as given in the NIST ThermoML archive (doi:10.1021/je900648p).
± gives the expanded uncertainty stated by the source.

Legend:
[1] = 101.33 kPa, Liquid, Hot wire method
[2] = molar heat capacity at constant pressure; settings: 101.33 kPa, Liquid, Small sample (50 mg) DSC

CCCC[N+]1(C)CCCC1.O=S(=O)([N-]S(=O)(=O)C(F)(F)F)C(F)(F)F
[1]
Settings	thermal conductivity [W/m/K]
293 K	0.118 ± 0.01
303 K	0.118 ± 0.01
313 K	0.118 ± 0.01
323 K	0.117 ± 0.01
333 K	0.117 ± 0.01

CCCCn1cc[n+](C)c1.F[P-](F)(F)(F)(F)F [1-butyl-3-methylimidazolium hexafluorophosphate]
Settings	molar heat capacity at constant pressure [J/K/mol]	thermal conductivity [W/m/K]
[1], 293 K	–	0.145 ± 0.01
[1], 303 K	–	0.145 ± 0.01
[1], 313 K	–	0.145 ± 0.01
[1], 323 K	–	0.144 ± 0.01
[1], 333 K	–	0.143 ± 0.01
[1], 343 K	–	0.143 ± 0.01
[1], 353 K	–	0.143 ± 0.01
[2], 308.16 K	410.64 ± 8.2	–
[2], 313.16 K	413.48 ± 8.3	–
[2], 318.16 K	417.74 ± 8.3	–
[2], 323.16 K	422.01 ± 8.4	–
[2], 328.22 K	423.43 ± 8.5	–
[2], 333.22 K	426.27 ± 8.5	–
[2], 338.19 K	429.11 ± 8.6	–
[2], 343.18 K	433.37 ± 8.7	–
[2], 348.25 K	436.22 ± 8.7	–
[2], 353.18 K	439.06 ± 8.8	–
[2], 358.25 K	441.9 ± 8.8	–
[2], 363.18 K	443.32 ± 8.9	–
[2], 368.17 K	444.74 ± 8.9	–
[2], 373.21 K	447.58 ± 8.9	–
[2], 378.2 K	450.43 ± 9	–
[2], 383.17 K	454.69 ± 9.1	–
[2], 388.2 K	457.53 ± 9.2	–
[2], 393.17 K	460.37 ± 9.2	–
[2], 398.2 K	463.21 ± 9.3	–
[2], 403.2 K	468.9 ± 9.4	–
[2], 408.16 K	470.32 ± 9.4	–
[2], 413.19 K	471.74 ± 9.4	–
[2], 418.19 K	473.16 ± 9.5	–
[2], 423.22 K	474.58 ± 9.5	–

CCCCn1cc[n+](C)c1.F[B-](F)(F)F [1-butyl-3-methylimidazolium tetrafluoroborate]
[2]
Settings	molar heat capacity at constant pressure [J/K/mol]
308.16 K	367.26 ± 7.3
313.16 K	367.64 ± 7.3
318.16 K	370.39 ± 7.4
323.16 K	371.89 ± 7.4
328.22 K	373.73 ± 7.5
333.22 K	375.92 ± 7.5
338.19 K	377.15 ± 7.5
343.18 K	380.16 ± 7.6
348.25 K	382.69 ± 7.7
353.18 K	384.8 ± 7.7
358.25 K	386.99 ± 7.7
363.18 K	389.18 ± 7.8
368.17 K	390 ± 7.8
373.21 K	390.04 ± 7.8
378.2 K	392.18 ± 7.8
383.17 K	393.64 ± 7.9
388.2 K	395.28 ± 7.9
393.17 K	396.49 ± 7.9
398.2 K	397.93 ± 8
403.2 K	400.74 ± 8
408.16 K	403.88 ± 8.1
413.19 K	403.49 ± 8.1
418.19 K	404.98 ± 8.1
423.22 K	406.62 ± 8.1

CCCCCCn1cc[n+](C)c1.F[B-](F)(F)F [1-hexyl-3-methylimidazolium tetrafluoroborate]
[1]
Settings	thermal conductivity [W/m/K]
293 K	0.158 ± 0.01
303 K	0.157 ± 0.01
313 K	0.156 ± 0.01
323 K	0.155 ± 0.01
333 K	0.153 ± 0.01
343 K	0.152 ± 0.01
353 K	0.151 ± 0.01
